Assay results taken from patent US7375122B2, “Compounds useful as pesticides” (Dow AgroSciences LLC, priority 2002, dated 2008).

How the values were obtained:
Assay type in all cases: in vivo
[1] = test system: Sweetpotato Whitefly, Bemisia tabaci; test: Testing with Sweetpotato Whitefly, track sprayer application on egg-infested cotton plants; settings: for LC90: sweetpotato whitefly on cotton plants, track sprayer, assessment at 13 days after application
Method: Greenhouse-grown cotton plants (ca. five weeks old, grown in 7×7 cm pots containing ca. 231 cm^3 of potting soil mixture) were prepared for whitefly infestation by removing all foliage except the first or second pair of fully expanded true leaves. These plants are then moved into the whitefly colony room of the insectary (temperature maintained at 27° C.), where they are surrounded by cotton or velvetleaf plants infested with all life stages of B. tabaci. Initial movement of B. tabaci adults onto the prepared cotton plants is encouraged by gently shaking the foliage of the surrounding infested cotton and velvetleaf foliage using a 1.5-meter long willow branch. The prepared plants are left in place within the whitefly colony, where they are exposed to adult female B. tabaci oviposition for ca. 48 hours.
At the end of the oviposition exposure period, adult whiteflies are dislodged from the prepared plants by passing compressed air just above the leaves while the leaves are gently disturbed by hand for ca. 15 seconds. The prepared plants, which are now infested with eggs of B. tabaci, are removed from the insectary and any remaining adults are removed from the foliage with a hand-held vacuum fitted with a cage to trap insects. Infested plants are then selected at random and arranged into treatment groups of two or three plants each. Leaves of plants to receive different treatments are separated by a distance of at least 5 cm.
Compounds are applied within 24 hours of removing cotton plants from exposure to oviposition within the B. tabaci colony. Immediately after application, plants are moved to a holding room with a temperature of 30° C. and relative humidity of ca. 60%. Compound efficacy was observed by an assessment at 13 days after application. At this evaluation time, whitefly nymphs that have successfully developed to the third and fourth nymphal stadia can be easily seen on the underside of each cotton leaf with the aid of an illuminated magnifying lens (equipped with a circular fluorescent tube). […]

[2] = test system: Cotton Aphid (Aphis gossypll); test: Testing with Cotton Aphid, track sprayer application on infested cotton plants; settings: for LC90: cotton aphid on cotton plants, track sprayer approx. 200 L/ha, count of living non-winged aphids
Method: Alcala cotton plants were grown from seed in 7-cm pots under greenhouse conditions until they reached 35 to 40 cm in height; approximately four weeks old with 5 to 6 true leaves. The plants were then stripped of all foliage except for the two uppermost true leaves. Two days prior to application, heavily infested leaf sections from a cotton aphid colony were cut and placed on each untreated leaf surface. Over the two days, all stages of the aphids abandon the excised host material and migrate to the succulent growth, predominantly the lower surface of the leaves. Plants were checked prior to application for even infestation levels. Treatments consisted of 4 replicates (plants) each with 2 leaves per plant.
Formulation of technical compound was in a solvent solution. For the top rate of each compound, 20 milligrams of technical material was dissolved in 2 milliliters (ml) of a 9:1 mixture of acetone:ethanol solvent. Once dissolved, an additional 18-ml of the solvent mix was added to yield a 1 mg/ml spray solution. Additional rates were then prepared by serial dilution.
Application was made by an automated tracksprayer (RC-Insecticide #1, Serial MS-9′-002, MANDEL Scientific Company Ltd.) equipped with a single TX6 SS hollow cone nozzle to simulate an over-the-top application by a boom sprayer. Spray pressure was set at 50 PSI, and the nozzle head was set approximately 40 cm above the leaf surface (depending on the leaf position it ranged from 35-45 cm). Track velocity and all other settings were calibrated to deliver approximately 200 L/ha. After application and drying, the plants were transferred and kept in controlled environment until assessment.
Assessment of compound efficacy is evaluated by counting all living non-winged stage aphids infesting each replicate using a dissecting microscope.

[3] = test system: Cat Flea (Cntenocephalides felis); test: Testing with Cat Flea, treated media infested with eggs; settings: eggs held five weeks, adult fleas counted
Method: Media is prepared by mixing 1 part dried bovine blood, 4 parts ground dog food pellets, and 95 parts clean sand. Compounds are dissolved in acetone and further diluted in acetone to yield the required range of concentrations. The acetone solutions are applied to measured amounts of media in small dishes. Final concentrations are expressed as micrograms of compound per gram of media. After the acetone has dried, the treated media is dispensed into small glass vials and infested with 5 to 10 cat flea (Cntenocephalides fells) eggs. The vials are loosely capped and held under controlled conditions for five weeks. Activity is assessed based on the average number of adult cat fleas present in the treated vials compared to the average number of adult cat fleas in the media

Compound	LC90 [1]	times more Comparative Compound A needed to reach the LC90 level than Compound Three ([1]; sweetpotato whitefly, ratio of LC90 values)	LC90 [2]	times more Comparative Compound A needed to reach the LC90 level than Compound Three ([2]; cotton aphid, ratio of LC90 values)	control of cat fleas ([3]; 0.1 μg/g rate in media)	control of cat fleas ([3]; 0.01 μg/g rate in media)
O=[N+]([O-])/C=C1\NCCN1Cc1ccc(Cl)nc1 [Comparative Compound A]	6.66 grams per hectare	~2.7 times	9.1 grams per hectare	~11.7 times	–	–
CN/C(=C(/C=O)[N+](=O)[O-])N(C)Cc1ccc(Cl)nc1 [Compound One]	–	–	–	–	100%	–
O=C/C(=C1/NCCN1Cc1ccc(Cl)nc1)[N+](=O)[O-] [Compound Three]	less than 2.52 grams per hectare	–	less than 0.78 grams per hectare	–	96%	81%
